pIC50: −log10 of the molar value.

Data set [1] addresses ALK tyrosine kinase receptor (Homo sapiens, UniProt Q9UM73). The data set can be described thus: Inhibition of GST-tagged human ALK cytoplasmic domain (1058-1620) expressed in Sf21 insect cells using GST-tagged human recombinant PLC-gamma/substrate by ELISA.
Data set [2] addresses Insulin receptor (Homo sapiens, UniProt P06213). The data set can be described thus: Inhibition of IR.
Data set [3] concerns the target NPM/ALK (Nucleophosmin/ALK tyrosine kinase receptor) (Homo sapiens, UniProt Q9UM73). Briefly: Inhibition of human NPM-ALK phosphorylation using 4-MeUP substrate by cell based assay.
A short description of data set [4]: Half life in monkey liver microsomes at 0.5 uM preincubated for 10 mins before NADPH and UDPGA challenge. It is filed as ADME, Macaca mulatta, Microsome. The note with it: rhesus monkey. For orientation: Liver microsomes are vesicles of endoplasmic reticulum, rich in cytochrome P450 enzymes.
Data set [5] can be described thus: Half life in human liver microsomes at 0.5 uM preincubated for 10 mins before NADPH and UDPGA challenge. It is filed as ADME, Microsome.
A short description of data set [6]: Half life in Sprague-Dawley rat at 1 mg/kg, iv. It is filed as ADME, organism-based. The note with it: in vivo. Set-up: dose 1 mg/kg, route intravenous.
Data set [7] is described as follows: Clearance in Sprague-Dawley rat at 1 mg/kg, iv. It is filed as ADME, organism-based. Also noted: dose 1 mg/kg, route intravenous. The note with it: in vivo.
A short description of data set [8]: Oral bioavailability in Sprague-Dawley rat at 5 mg/kg. The note with it: in vivo. It is filed as ADME, organism-based.
The nature of data set [9]: Half life in Sprague-Dawley rat liver microsomes at 0.5 uM preincubated for 10 mins before NADPH and UDPGA challenge. It is filed as ADME, Microsome.
Data set [10] is described as follows: Half life in rat liver S9 fraction. It is filed as ADME, subcellular.
Data set [11] can be described thus: AUC (0 to t) in Sprague-Dawley rat at 5 mg/kg, po. It is filed as ADME, organism-based. Set-up: dose 5 mg/kg, route oral. The note with it: plasma.
The nature of data set [12]: Half life in CD1 mouse liver microsomes at 0.5 uM preincubated for 10 mins before NADPH and UDPGA challenge. It is filed as ADME, Microsome.
For data set [13], the system named is Mus musculus. Briefly: Inhibition of NPM-ALK phosphorylation in human SUP-M2 cells xenografted in SCID mouse at 30 mg/kg, po administered as single dose measured 12 hrs post dose. It is filed as functional. As to conditions: SUP-M2, 12 h. In general terms: In xenograft studies the graft and the host belong to different species.

Sequence of NPM/ALK (Nucleophosmin/ALK tyrosine kinase receptor) (Q9UM73 whole entry): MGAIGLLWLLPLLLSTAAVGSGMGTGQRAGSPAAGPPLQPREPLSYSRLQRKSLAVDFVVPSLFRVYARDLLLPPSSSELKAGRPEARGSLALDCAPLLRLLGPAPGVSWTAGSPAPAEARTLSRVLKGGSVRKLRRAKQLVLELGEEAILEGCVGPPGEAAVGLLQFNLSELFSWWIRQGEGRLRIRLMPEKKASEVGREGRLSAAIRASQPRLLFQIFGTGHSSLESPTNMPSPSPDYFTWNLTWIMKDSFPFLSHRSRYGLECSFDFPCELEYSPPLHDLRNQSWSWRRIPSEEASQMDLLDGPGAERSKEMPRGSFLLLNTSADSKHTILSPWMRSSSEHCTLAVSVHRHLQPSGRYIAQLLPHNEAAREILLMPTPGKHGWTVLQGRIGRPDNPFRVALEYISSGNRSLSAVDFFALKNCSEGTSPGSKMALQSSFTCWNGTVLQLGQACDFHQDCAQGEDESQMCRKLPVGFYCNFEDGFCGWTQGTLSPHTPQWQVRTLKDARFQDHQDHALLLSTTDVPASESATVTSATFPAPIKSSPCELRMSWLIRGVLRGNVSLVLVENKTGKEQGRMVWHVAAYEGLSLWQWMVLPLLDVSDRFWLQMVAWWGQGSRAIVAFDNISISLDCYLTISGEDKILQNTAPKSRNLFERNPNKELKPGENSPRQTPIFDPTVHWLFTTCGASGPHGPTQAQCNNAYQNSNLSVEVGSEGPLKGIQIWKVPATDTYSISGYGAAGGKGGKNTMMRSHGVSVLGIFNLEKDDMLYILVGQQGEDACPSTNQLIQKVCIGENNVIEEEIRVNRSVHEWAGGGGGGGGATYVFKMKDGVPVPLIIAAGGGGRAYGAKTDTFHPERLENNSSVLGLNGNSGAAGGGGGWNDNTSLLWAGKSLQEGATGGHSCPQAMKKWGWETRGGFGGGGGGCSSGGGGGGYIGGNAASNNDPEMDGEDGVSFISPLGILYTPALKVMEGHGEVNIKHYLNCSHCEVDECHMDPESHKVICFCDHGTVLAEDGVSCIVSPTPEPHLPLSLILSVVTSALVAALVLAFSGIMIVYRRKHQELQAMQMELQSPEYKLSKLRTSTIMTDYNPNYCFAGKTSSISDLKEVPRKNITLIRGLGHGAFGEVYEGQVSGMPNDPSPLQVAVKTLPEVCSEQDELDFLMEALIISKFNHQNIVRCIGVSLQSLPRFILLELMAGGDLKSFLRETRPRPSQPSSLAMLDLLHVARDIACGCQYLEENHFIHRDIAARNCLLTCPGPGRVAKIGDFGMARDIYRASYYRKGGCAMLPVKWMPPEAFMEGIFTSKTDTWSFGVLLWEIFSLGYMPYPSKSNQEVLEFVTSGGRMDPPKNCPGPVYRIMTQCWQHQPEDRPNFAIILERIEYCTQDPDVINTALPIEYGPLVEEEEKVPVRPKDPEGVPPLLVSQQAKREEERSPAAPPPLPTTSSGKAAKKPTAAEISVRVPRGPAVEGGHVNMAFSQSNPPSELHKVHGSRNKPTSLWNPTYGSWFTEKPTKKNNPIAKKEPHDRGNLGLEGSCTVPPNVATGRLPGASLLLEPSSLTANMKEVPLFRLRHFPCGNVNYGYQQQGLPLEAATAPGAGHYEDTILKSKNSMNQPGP
Sequence of NPM/ALK (Nucleophosmin/ALK tyrosine kinase receptor) (P06748 whole entry, further chain): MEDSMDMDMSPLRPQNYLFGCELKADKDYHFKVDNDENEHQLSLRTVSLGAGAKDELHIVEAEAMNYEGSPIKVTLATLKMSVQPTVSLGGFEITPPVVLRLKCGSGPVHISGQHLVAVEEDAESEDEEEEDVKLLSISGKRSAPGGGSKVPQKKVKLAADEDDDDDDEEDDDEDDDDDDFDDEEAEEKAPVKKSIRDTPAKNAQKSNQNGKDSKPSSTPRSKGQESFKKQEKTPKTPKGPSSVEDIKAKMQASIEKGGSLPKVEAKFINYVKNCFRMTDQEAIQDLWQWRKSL
Sequence of ALK tyrosine kinase receptor (Q9UM73 whole entry, the tested form may be a part): as the sequence (Q9UM73 whole entry) above
Sequence of Insulin receptor (P06213 28-758 limits assumed): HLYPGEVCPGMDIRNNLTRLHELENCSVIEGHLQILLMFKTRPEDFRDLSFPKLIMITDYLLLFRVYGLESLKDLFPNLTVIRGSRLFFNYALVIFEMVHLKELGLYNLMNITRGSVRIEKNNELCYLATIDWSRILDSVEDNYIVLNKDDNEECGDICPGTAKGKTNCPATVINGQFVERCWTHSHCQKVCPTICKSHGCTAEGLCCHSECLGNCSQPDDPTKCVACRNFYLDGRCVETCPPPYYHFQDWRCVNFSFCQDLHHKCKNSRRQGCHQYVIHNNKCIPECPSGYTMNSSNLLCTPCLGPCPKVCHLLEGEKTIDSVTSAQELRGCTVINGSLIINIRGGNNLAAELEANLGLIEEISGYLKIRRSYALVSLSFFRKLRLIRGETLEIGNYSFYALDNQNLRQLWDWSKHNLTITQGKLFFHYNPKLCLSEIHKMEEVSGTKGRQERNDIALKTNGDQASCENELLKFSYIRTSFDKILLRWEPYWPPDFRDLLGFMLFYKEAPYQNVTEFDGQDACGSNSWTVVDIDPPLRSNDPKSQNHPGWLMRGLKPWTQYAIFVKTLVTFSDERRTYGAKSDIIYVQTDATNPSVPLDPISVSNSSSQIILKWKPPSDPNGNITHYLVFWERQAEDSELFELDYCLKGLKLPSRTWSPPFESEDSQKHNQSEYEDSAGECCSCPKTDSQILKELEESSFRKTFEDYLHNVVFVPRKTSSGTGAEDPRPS
Sequence of Insulin receptor (P06213 763-1382 limits assumed): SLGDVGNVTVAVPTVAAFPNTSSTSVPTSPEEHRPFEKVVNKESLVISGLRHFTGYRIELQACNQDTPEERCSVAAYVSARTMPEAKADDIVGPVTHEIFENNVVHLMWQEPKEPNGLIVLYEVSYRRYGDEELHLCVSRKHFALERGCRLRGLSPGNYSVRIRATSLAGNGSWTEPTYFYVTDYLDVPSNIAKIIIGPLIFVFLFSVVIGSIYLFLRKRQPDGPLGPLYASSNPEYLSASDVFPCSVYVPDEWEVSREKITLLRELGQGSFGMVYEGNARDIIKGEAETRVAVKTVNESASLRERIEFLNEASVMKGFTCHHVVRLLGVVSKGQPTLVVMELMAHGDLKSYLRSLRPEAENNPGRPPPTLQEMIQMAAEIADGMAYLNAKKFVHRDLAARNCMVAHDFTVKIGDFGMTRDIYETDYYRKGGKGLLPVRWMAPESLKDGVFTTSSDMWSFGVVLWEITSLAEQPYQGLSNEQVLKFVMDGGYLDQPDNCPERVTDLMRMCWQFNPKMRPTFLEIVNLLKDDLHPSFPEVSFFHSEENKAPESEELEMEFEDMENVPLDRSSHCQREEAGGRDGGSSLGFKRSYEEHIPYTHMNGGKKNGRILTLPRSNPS

The term pIC50 denotes the IC50 on a negative log10 scale, so that one unit is a factor of ten. Regarding `COc1cc(C2CCN(CC(N)=O)CC2)ccc1Nc1ncc2ccc(-c3ccncc3OC)n2n1`, the values for the pIC50 in data set [1], in data set [2] and in data set [3] were 8.05, 6.39 and 6.82, respectively.
By half-life is commonly meant how long it takes for the measured level to halve. As for `CNC(=O)CN1CCC(c2ccc(Nc3ncc4ccc(-c5ccccc5OC)n4n3)c(OC)c2)CC1`, the figures for the pIC50 in data set [1], in data set [2] and in [3] were 8.00, 6.79 and 7.00, respectively. The half-life at 0.5 µM in [4] and in data set [5] was less than 12 min each time.
Usually clearance stands for the rate of elimination divided by the concentration. The term bioavailability denotes dose-corrected exposure relative to a reference, in per cent. `COc1cc(C2CCN(C)CC2)ccc1Nc1ncc2ccc(-c3ccccc3OC)n2n1`: the pIC50 in [1] was 8.22; in data set [2], 6.65; in [3], 7.15. Further, the half-life in data set [6] was 84 min. This molecule also returned a clearance in [7] of 1.74 L/h/kg. This molecule also showed a bioavailability in data set [8] of 3%.
For `COc1cc(C2CCN(C[C@H](O)CO)CC2)ccc1Nc1ncc2ccc(-c3ccccc3OC)n2n1`, the pIC50 in [1] is 8.54; in data set [2], 6.79; in data set [3], 7.52. In data set [9], this molecule registered a half-life at 0.5 µM greater than 40 min. Also, the half-life in [6] is 120 min; in data set [10], greater than 40 min. In [7], the clearance is 2.34 L/h/kg. This molecule had a bioavailability in data set [8] of 15%.
What is called AUC(0-t) is the area under the concentration-time curve up to a stated or last time point. For `COc1cc(C2CCN(C[C@@H](C)O)CC2)ccc1Nc1ncc2ccc(-c3ccccc3OC)n2n1`, the pIC50 was 8.47 in data set [1] and 7.00 in data set [3]. The half-life at 0.5 µM in [9] is greater than 40 min; in data set [4], 21 min; in data set [5], greater than 40 min; in data set [12], greater than 40 min. In data set [8], the bioavailability was less than 1%. This molecule returned an exposure AUC(0-t) in data set [11] of 0.011 µg·h/mL. Moreover, in data set [10], the half-life was greater than 40 min.
With `COc1cc(C2CCN(C(=O)C3CCN3)CC2)ccc1Nc1ncc2ccc(-c3ccccc3OC)n2n1` (racemic), the pIC50 is 7.96 in data set [1], 6.47 in data set [2] and 6.70 in data set [3]. The half-life at 0.5 µM in [9] is greater than 40 min. The half-life in data set [6] was 150 min; in [10] it was greater than 40 min. For the same molecule, in data set [7], the clearance was found to be 1.92 L/h/kg. This molecule also came in with a bioavailability in data set [8] of 15%.
In the case of `COc1cc(C2CCN(CC(N)=O)CC2)ccc1Nc1ncc2ccc(-c3ncccc3OC)n2n1`, the pIC50 is 5.97 in data set [1] and less than 5.00 in data set [2].
In the case of `COc1cc(C2CCN(CC(N)=O)CC2)ccc1Nc1ncc2ccc(-c3ccccc3C#N)n2n1`, the pIC50 was 7.72 in data set [1], 6.13 in data set [2] and 6.60 in data set [3].
For `COc1ccc(-c2ccc3cnc(Nc4ccc(C5CCN(CC(N)=O)CC5)cc4OC)nn23)c(OC)c1`, in that order: 7.92, 5.53 and 6.30.
Consider `COc1cc(C2CCN(CC(N)=O)CC2)ccc1Nc1ncc2c(O)cc(-c3ccccc3N(C)S(C)(=O)=O)n2n1`, for which the pIC50 in data set [1] is 7.96. Moreover, the half-life at 0.5 µM in data set [9], in data set [4], in data set [5] and in data set [12] was less than 5 min each time.
With `C[C@H](O)CN1CCN(c2cc(F)c(Nc3ncc4ccc(-c5ccccc5N(C)S(C)(=O)=O)n4n3)cc2F)CC1`, in data set [1], the pIC50 was 7.04.
Usually inhibition in vivo stands for the drop in the measured response relative to a control, in per cent. Regarding `COc1cc(C2CCN(CC(N)=O)CC2)ccc1Nc1ncc2c(C)cc(-c3ccccc3N(C)S(C)(=O)=O)n2n1`, the pIC50 was 8.22 in data set [1] and 7.15 in data set [3]. Further, the half-life at 0.5 µM in data set [9] was 31 min; in data set [4] it was 6 min; in data set [5], 18 min; in data set [12], greater than 40 min. Also, the half-life in data set [6] was greater than 120 min. This molecule also registered a clearance in data set [7] of no more than 0.24 L/h/kg. In addition, the bioavailability in [8] was 24%. This molecule returned an inhibition in vivo at 30 mg/kg in data set [13] of less than 75%.
As for `COc1cc(N2CCN(C[C@H](C)O)CC2)c(F)cc1Nc1ncc2ccc(-c3ccccc3N(C)S(C)(=O)=O)n2n1`, the values for the pIC50 in [1] and in data set [3] were 7.85 and 6.70, respectively.
In the case of `COc1cc(C2CCNCC2)ccc1Nc1ncc2ccc(-c3ccccc3N(C)S(C)(=O)=O)n2n1`, the pIC50 in data set [1] is 8.00; in [3] it was 7.40. Further, the half-life at 0.5 µM in data set [9] is 22 min; in data set [4], less than 5 min; in [5], 7 min; in data set [12] it was greater than 40 min.
On to `COc1ccc(N2CCN(C)CC2)cc1Nc1ncc2ccc(-c3ccccc3N(C)S(C)(=O)=O)n2n1`, for which the pIC50 in data set [1] was 7.55.
`COc1cc(C2CCN(C[C@@H](C)O)CC2)ccc1Nc1ncc2ccc(-c3ccccc3N(C)S(C)(=O)=O)n2n1`: the figures for the pIC50 in [1] and in [3] were 8.22 and 7.15, respectively. Besides, the half-life at 0.5 µM is 11 min in data set [9], less than 5 min in data set [4], less than 5 min in [5] and greater than 40 min in data set [12].
With `COc1cc(C2CCN(C(=O)C(C)(C)N)CC2)ccc1Nc1ncc2ccc(-c3ccccc3OC)n2n1`, the pIC50 in data set [1] is 8.15; in [2] it was 6.24; in data set [3] it was 6.82. In [9], this molecule yielded a half-life at 0.5 µM greater than 40 min. Besides, the half-life in [6] is 156 min; in [10], greater than 40 min. In data set [7], this molecule yielded a clearance of 1.5 L/h/kg. In [8], this molecule displayed a bioavailability of 13%.
With `COc1c(Nc2ncc3ccc(-c4ccccc4N(C)S(C)(=O)=O)n3n2)ccc(N2CCN(C[C@H](C)O)CC2)c1F`, the pIC50 in [1] was 7.25.
Turning to `COc1cc(C2CCN(CCO)CC2)ccc1Nc1ncc2ccc(-c3ccccc3N(C)S(C)(=O)=O)n2n1`, the pIC50 in data set [1] is 8.22; in data set [3], 7.22. Moreover, the half-life at 0.5 µM in [9] was 21 min; in [4], less than 5 min; in data set [5], less than 5 min; in [12], greater than 40 min.
Take `COc1ccc(N2CCN(C)CC2)cc1Nc1ncc2ccc(-c3ccccc3OC)n2n1`: in data set [1], the pIC50 was 6.73.
Turning to `COc1cc(C2CCN(CC(N)=O)CC2)ccc1Nc1ncc2c(Cl)cc(-c3ccccc3N(C)S(C)(=O)=O)n2n1`, the pIC50 in [1] was 8.33; in data set [3] it was 7.15. Moreover, the half-life at 0.5 µM in [9] is greater than 40 min; in data set [4], 15 min; in data set [5], 37 min; in data set [12], greater than 40 min. The molecule further came in with a half-life in data set [6] greater than 120 min. The same molecule gave a clearance in data set [7] of no more than 0.24 L/h/kg. In data set [8], this molecule gave a bioavailability of 41%. Further, the inhibition in vivo at 30 mg/kg in [13] is less than 75%.
As to `COc1cc(C2CCN(CC(O)CF)CC2)ccc1Nc1ncc2ccc(-c3ccccc3OC)n2n1` (racemic), the pIC50 was 8.52 in data set [1], 6.83 in [2] and 7.10 in data set [3]. This molecule came in with a half-life at 0.5 µM in data set [9] greater than 40 min. Besides, the half-life in [6] is 84 min; in data set [10], greater than 40 min. This molecule returned a clearance in data set [7] of 3.72 L/h/kg. In data set [8], this molecule registered a bioavailability of 16%.
Regarding `COc1cc(C2CCN(CC(N)=O)CC2)ccc1Nc1ncc2ccc(-c3ccccc3N(C)S(C)(=O)=O)n2n1`, the negative logarithm of the IC50 (pIC50) was 7.82 in data set [1], 6.26 in data set [2] and 7.10 in data set [3]. Moreover, the half-life at 0.5 µM was less than 5 min in data set [9], less than 5 min in [4], less than 5 min in data set [5] and 29 min in data set [12].

For the origin of these results see ChEMBL document CHEMBL2157957, “Strategies to mitigate the bioactivation of 2-anilino-7-aryl-pyrrolo[2,1-f][1,2,4]triazines: identification of orally bioavailable, efficacious ALK inhibitors” (J Med Chem, 2012).
